Source: patent publication US20030022158A1, “Peptides from the TT virus sequence and monospecific antibodies binding to the TT virus” (priority 1999, published 2003)

How the values were obtained:
[1] = test system: human IgG antibodies in human serum samples; assay: EIA of human antibody reactivities to overlapping synthetic peptides of TTV ORF1 and ORF2 (Tables 2 and 3); format: binding; conditions: for optical density (OD) at 405 nm: serum diluted 1:100, OD over 0.500 considered positive; for human reactivity to peptide (reactive peptides within ORF1): tested human sera, EIA
Text: Overlapping peptides (18 amino acids in length containing an 8 amino acid overlap) corresponding to regions of the ORFI and ORF2 of TTV (TABLE 1; Genebank accession no AB008394) were produced by a multiple peptide synthesizer (Syro, Syntex, Germany) using standard Fmoc chemistry (Sallberg et al., Immunology Letters, 30:59 68 (1991), herein expressly incorporated by reference in its entirety).
(§1) The EIAs used to identify which peptides interacted with human sera followed protocols known in the art. (See Zhang et al., J Gen Virol, 78:2735-2746 (1997), herein expressly incorporated by reference in its entirety). Briefly, microplates (Nunc, Denmark) were coated for 48 hours with synthetic peptides at a concentration of 10 μg/ml in 0.05M sodium carbonate buffer pH 9.6. After blocking for 2 hours at room temperature with phosphate buffered saline containing 1% bovine serum albumin, 2% goat serum and 0.05% Tween 20 (dilution buffer) the plates were incubated with human sera diluted 1:100 in dilution buffer. Bound human IgG was detected by incubation with anti-human IgG antibodies conjugated to alkaline phosphatase (Sigma Chemicals, St. Louis, Mo.). The plates were developed by the addition of […] (Sigma) and the optical densities were determined at 405 nm.

[2] = test system: human antibodies in human serum samples; assay: EIA reactivities of three human serum samples with deletion and alanine substitution analogues of SEQ ID NO: 1 (Table 6); format: binding; conditions: positive = more than 50% of the reactivity of the original peptide
Method: as §1
The reactivity to the TATTTTYAYPGTNRPPV (SEQ ID NO: 1) peptide was further characterized by mapping the reactivity of deletion and substitution peptide analogues.

[3] = human serum sample 1, negative for TTV DNA by PCR
[4] = human serum sample 2, negative for TTV DNA by PCR
[5] = human serum sample 3, negative for TTV DNA by PCR
[6] = human serum sample 4, negative for TTV DNA by PCR
[7] = human serum sample 5, negative for TTV DNA by PCR
[8] = human serum sample 6, negative for TTV DNA by PCR
[9] = human serum sample 7, negative for TTV DNA by PCR
[10] = human serum sample 9, positive for TTV DNA by PCR
[11] = human serum sample 11, negative for TTV DNA by PCR
[12] = human serum sample 18, positive for TTV DNA by PCR
[13] = human serum sample 36, positive for TTV DNA by PCR
[14] = human serum sample 48, positive for TTV DNA by PCR
[15] = human serum sample 98, positive for TTV DNA by PCR
[16] = human serum sample 110, positive for TTV DNA by PCR
[17] = human serum sample 155, positive for TTV DNA by PCR
[18] = human serum sample 157, positive for TTV DNA by PCR

Substance | optical density (OD) at 405 nm [1, 3] | optical density (OD) at 405 nm [1, 4] | optical density (OD) at 405 nm [1, 5] | optical density (OD) at 405 nm [1, 6] | optical density (OD) at 405 nm [1, 7] | optical density (OD) at 405 nm [1, 8] | optical density (OD) at 405 nm [1, 9] | optical density (OD) at 405 nm [1, 10] | optical density (OD) at 405 nm [1, 11] | optical density (OD) at 405 nm [1, 12] | optical density (OD) at 405 nm [1, 13] | optical density (OD) at 405 nm [1, 14] | optical density (OD) at 405 nm [1, 15] | optical density (OD) at 405 nm [1, 16] | optical density (OD) at 405 nm [1, 17] | optical density (OD) at 405 nm [1, 18] | human reactivity to peptide (reactive peptides within ORF1) [1] | OD at 405 nm, reactivity of human serum sample P4 [2] | OD at 405 nm, reactivity of human serum sample P7 [2] | OD at 405 nm, reactivity of human serum sample P36 [2]
PDEKSQREILLNKIASY (Peptide Immunogen) [compound 29, overlapping synthetic peptide of TTV ORF1] | 0.42 OD | 0.36 OD | 0.45 OD | 0.53 OD | 0.22 OD | 0.95 OD | 0.29 OD | 0.21 OD | 0.14 OD | 0.11 OD | 0.09 OD | 0.10 OD | 0.09 OD | 0.25 OD | 0.59 OD | 0.62 OD | Reactive | 0.142 OD | 0.105 OD | 0.076 OD
LIRSPFTDPQLLVHTDP (Peptide Immunogen) [compound 51, overlapping synthetic peptide of TTV ORF1] | 0.06 OD | 0.09 OD | 0.08 OD | 0.10 OD | 0.12 OD | 0.24 OD | 0.13 OD | 0.07 OD | 0.13 OD | 0.07 OD | 0.08 OD | 0.08 OD | 0.11 OD | 0.09 OD | 0.24 OD | 0.78 OD | Reactive | 0.899 OD | 1.697 OD | 0.903 OD
GLYSSIWLSPGRSYFET (Peptide Immunogen) [compound 42, overlapping synthetic peptide of TTV ORF1] | 0.08 OD | 0.11 OD | 0.09 OD | 0.10 OD | 0.17 OD | 0.23 OD | 0.11 OD | 0.27 OD | 0.19 OD | 0.12 OD | 0.10 OD | 0.09 OD | 0.16 OD | 0.42 OD | 0.35 OD | 1.24 OD | Reactive | 0.135 OD | 0.242 OD | 0.076 OD
22: overlapping synthetic peptide of TTV ORF1 (TATTTTYAYPGTNR) [compound 22] | 0.07 OD | 0.07 OD | 0.07 OD | 0.08 OD | 0.08 OD | 0.09 OD | 0.09 OD | 0.08 OD | 0.11 OD | 0.07 OD | 0.08 OD | 0.10 OD | 0.04 OD | 0.07 OD | 0.11 OD | 0.11 OD |  | 0.092 OD | 0.103 OD | 0.078 OD
